Experimental data reported in article PMC4977651, “Molecular features of biguanides required for targeting of mitochondrial respiratory complex I and activation of AMP-kinase” (BMC Biology, 2016).
Values joined by “and” are separate entries in the source; they are usually repeats but may differ in a detail not shown here. Equal entries are not always repeated. Where two headings read alike, the source gives them in different places.

Assays:
[1] = target: isolated bovine heart complex I (Bos taurus, UniProt P03887+P03898+P17694+P42026); assay: NADH:decylubiquinone oxidoreduction by isolated complex I; type: biochemical; conditions: for HillSlope (best fit value) / LogIC50 (best fit value): Prism fit; for HillSlope (best fit value): no std. error; for remaining activity at 100 µM: inhibitor 0.10 mM; for remaining activity at 200 µM: inhibitor 0.20 mM; for remaining activity at 500 µM: inhibitor 0.50 mM; for remaining activity at 1000 µM: inhibitor 1.00 mM; for remaining activity at 2000 µM: inhibitor 2.00 mM; for remaining activity at 5000 µM: inhibitor 5.00 mM; for LogIC50 (best fit value): log of IC50 in mM; for remaining activity at 50 µM: inhibitor 0.05 mM
isolated bovine heart complex I, sequence (P42026 38-216): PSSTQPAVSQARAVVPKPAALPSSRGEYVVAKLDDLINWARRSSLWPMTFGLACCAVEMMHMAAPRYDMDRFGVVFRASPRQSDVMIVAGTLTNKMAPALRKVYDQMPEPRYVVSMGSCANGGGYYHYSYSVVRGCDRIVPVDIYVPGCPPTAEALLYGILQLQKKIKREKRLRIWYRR
isolated bovine heart complex I, sequence (P17694 34-463): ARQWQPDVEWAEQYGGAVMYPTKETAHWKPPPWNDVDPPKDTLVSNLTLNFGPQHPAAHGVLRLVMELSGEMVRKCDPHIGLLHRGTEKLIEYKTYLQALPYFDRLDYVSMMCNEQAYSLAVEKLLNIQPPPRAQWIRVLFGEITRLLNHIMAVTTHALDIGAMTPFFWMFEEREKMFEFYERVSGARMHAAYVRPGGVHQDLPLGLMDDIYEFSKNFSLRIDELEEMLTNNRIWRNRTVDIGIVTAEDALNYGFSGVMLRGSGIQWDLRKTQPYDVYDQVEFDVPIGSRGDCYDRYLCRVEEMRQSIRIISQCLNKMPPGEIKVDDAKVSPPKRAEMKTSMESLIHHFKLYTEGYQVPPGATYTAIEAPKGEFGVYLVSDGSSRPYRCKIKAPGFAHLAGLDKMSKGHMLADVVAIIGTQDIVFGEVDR
isolated bovine heart complex I, sequence (P03898 whole entry): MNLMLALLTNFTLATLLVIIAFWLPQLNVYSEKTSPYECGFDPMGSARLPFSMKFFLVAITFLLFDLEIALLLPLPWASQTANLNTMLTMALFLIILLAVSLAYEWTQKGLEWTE
isolated bovine heart complex I, sequence (P03887 whole entry): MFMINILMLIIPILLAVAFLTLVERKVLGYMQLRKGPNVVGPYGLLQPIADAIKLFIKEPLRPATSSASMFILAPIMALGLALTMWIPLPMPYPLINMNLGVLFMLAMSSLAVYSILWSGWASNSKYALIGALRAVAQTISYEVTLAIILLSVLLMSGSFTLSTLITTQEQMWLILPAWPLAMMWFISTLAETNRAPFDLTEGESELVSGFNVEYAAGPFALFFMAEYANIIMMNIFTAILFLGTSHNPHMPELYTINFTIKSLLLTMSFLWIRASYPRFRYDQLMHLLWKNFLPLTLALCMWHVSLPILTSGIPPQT
Method: Complex I and mitochondrial membranes were prepared from Bos taurus (bovine) heart. Intact mitochondria were isolated from rat liver and mouse heart and liver. Membranes were prepared from mouse heart mitochondria by 5 s bursts of sonication at 4 °C and collected by centrifugation (75,000 × g, 1 h).
Assays were performed at 32 °C in a SpectraMax 96-well plate reader. NADH:decylubiquinone oxidoreduction by complex I at 0.5 μg mL^−1 was measured in 20 mM Tris-HCl (pH 7.2), 0.15 % soy bean asolectin (Avanti Polar Lipids), and 0.15 % 3-((3-cholamidopropyl)dimethylammonium)-1-propanesulfonate (CHAPS, Merck Chemicals Ltd), with 200 μM decylubiquinone and 200 μM NADH, and monitored using ε340–380(NADH) = 4.81 mM^−1 cm^−1 [23]. Catalysis was initiated by addition of NADH and maximal rates determined by linear regression. NADH:O2 oxidoreduction by membranes was measured similarly but using 5 μg mL^−1 membranes in 10 mM Tris-HCl (pH 7.4) and 250 mM sucrose using 200 μM NADH and supplemented with 0.15 mM horse heart cytochrome c (Sigma-Aldrich Ltd.). Succinate:O2 oxidoreduction was measured using 40 μg mL^−1 membranes in 5 mM succinate in 10 mM Tris-HCl (pH 7.4) as described previously. Control experiments included NaCl (to match the ionic strength) or DMSO, as appropriate.
Experimental values are reported as mean averages ± standard deviation (SD) of technical replicates for large sample sizes and mean averages ± standard error of the mean (SEM) of technical replicates for small sample sizes. Data were analyzed by the unpaired two-tailed Student’s t test. IC50 values were determined using the standard dose-effect relationship (activity (%) = 100 × IC50 / (IC50 + [inhibitor]^m) with the Hill Slope (m) set to unity for purified complex I) and are reported with 95 % confidence intervals.

143B cells = assay: Membrane potential measurement by TMRM fluorescence; type: cell-based, human
Method: 143B cells were seeded at 5 × 10^5 cells per 10 cm^2 well in DMEM containing 10 % FBS. […] The detached cells from each well were incubated in PBS containing 25 pg/mL tetramethylrhodamine, methyl ester (TMRM) and 20 μg/mL Hoescht stain for 20 min at 37 °C then washed twice and re-suspended in 200 μL PBS. TMRM fluorescence was detected using a NucleoCounter® NC 3000 cytometer with excitation at 530 nm and emission at 575 nm, with the Hoescht stain used to check for consistent cell density between samples.

[2] = bovine heart purified mitochondrial complex I
[3] = bovine heart purified mitochondrial complex I, Prism log(inhibitor) vs. response fit, Bottom 0, Top 100, read-out: IC50 (best fit value)
[4] = bovine heart purified mitochondrial complex I, read-out: average % (rate, % of no-inhibitor control)

SMILES: NC(N)=NC(N)=NCc1ccccc1 [compound 3, 2-benzyl-1-(diaminomethylidene)guanidine]
- HillSlope (best fit value) [1, 2]: 1
- IC50 [1, 3]: 567 µM
- remaining activity at 100 µM [1, 4]: 80%
- remaining activity at 200 µM [1, 4]: 65.6%
- remaining activity at 500 µM [1, 4]: 52.1%
- remaining activity at 1000 µM [1, 4]: 41%
- remaining activity at 2000 µM [1, 4]: 27.6%
- remaining activity at 5000 µM [1, 4]: 15.6%
- remaining activity at 10000 µM ([1]; bovine heart purified mitochondrial complex I, inhibitor 10.00 mM, read-out: average % (rate, % of no-inhibitor control)): 4.7%
- LogIC50 (best fit value) [1, 2]: -0.2463

SMILES: NC(N)=NC(N)=NCCc1ccc(Cl)cc1 [compound 1, 2-[2-(4-chlorophenyl)ethyl]-1-(diaminomethylidene)guanidine]
- HillSlope (best fit value) [1, 2]: 1
- IC50 [1, 3]: 195 µM
- remaining activity at 50 µM [1, 4]: 78.7%
- remaining activity at 100 µM [1, 4]: 67.7%
- remaining activity at 250 µM ([1]; bovine heart purified mitochondrial complex I, inhibitor 0.25 mM, read-out: average % (rate, % of no-inhibitor control)): 44.8%
- remaining activity at 500 µM [1, 4]: 28.6%
- remaining activity at 1000 µM [1, 4]: 15.1%
- remaining activity at 2500 µM ([1]; bovine heart purified mitochondrial complex I, inhibitor 2.50 mM, read-out: average % (rate, % of no-inhibitor control)): 2.59%
- remaining activity at 5000 µM [1, 4]: 1.32%
- LogIC50 (best fit value) [1, 2]: -0.7098

SMILES: N=C(N)NC(N)=Nc1ccccc1 [compound 2, phenyl biguanide]
- IC50 [1]: 458 µM
- HillSlope (best fit value) [1, 2]: 1
- LogIC50 (best fit value) [1, 2]: -0.3388

SMILES: CC(C)N=C(N)N=C(N)N [compound 4, 1-(diaminomethylidene)-2-(propan-2-yl)guanidine]
- HillSlope (best fit value) [1, 2]: 1
- IC50 [1, 3]: 6760 µM
- remaining activity at 620 µM ([1]; bovine heart purified mitochondrial complex I, inhibitor 0.62 mM, read-out: average % (rate, % of no-inhibitor control)): 88.4%
- remaining activity at 1560 µM ([1]; bovine heart purified mitochondrial complex I, inhibitor 1.56 mM, read-out: average % (rate, % of no-inhibitor control)): 84.5%
- remaining activity at 3000 µM ([1]; bovine heart purified mitochondrial complex I, inhibitor 3.00 mM, read-out: average % (rate, % of no-inhibitor control)): 70.3%
- remaining activity at 5800 µM ([1]; bovine heart purified mitochondrial complex I, inhibitor 5.80 mM, read-out: average % (rate, % of no-inhibitor control)): 54.5%
- remaining activity at 15620 µM ([1]; bovine heart purified mitochondrial complex I, inhibitor 15.62 mM, read-out: average % (rate, % of no-inhibitor control)): 30.1%
- remaining activity at 31250 µM ([1]; bovine heart purified mitochondrial complex I, inhibitor 31.25 mM, read-out: average % (rate, % of no-inhibitor control)): 16.1%
- remaining activity at 62500 µM ([1]; bovine heart purified mitochondrial complex I, inhibitor 62.50 mM, read-out: average % (rate, % of no-inhibitor control)): 5.52%
- LogIC50 (best fit value) [1, 2]: 0.8297

SMILES: CC(C)N=C(N)N=C(N)NC(C)C [compound 5, N-(propan-2-yl)-1-3-(propan-2-yl)carbamimidamidomethanimidamide]
- HillSlope (best fit value) [1, 2]: 1
- IC50 [1, 3]: 246 µM
- remaining activity at 50 µM [1, 4]: 79.4%
- remaining activity at 100 µM [1, 4]: 70.7%
- remaining activity at 200 µM [1, 4]: 55.4%
- remaining activity at 400 µM ([1]; bovine heart purified mitochondrial complex I, inhibitor 0.40 mM, read-out: average % (rate, % of no-inhibitor control)): 37.9%
- remaining activity at 1000 µM [1, 4]: 20.8%
- remaining activity at 2000 µM [1, 4]: 12.9%
- remaining activity at 4000 µM ([1]; bovine heart purified mitochondrial complex I, inhibitor 4.00 mM, read-out: average % (rate, % of no-inhibitor control)): 9.93%
- LogIC50 (best fit value) [1, 2]: -0.609

SMILES: [H]/N=C(/N)N/C(=N/[H])NCCc1ccccc1 [phenformin, reference compound]
- TMRM fluorescence, % of the control value (143B cells; after 6.5 h, phenformin at IC50/10 (34 μM), FCCP at 1 μM, n = 3): 22.4 ± 2.9%
- mean-y (TMRM) (143B cells; individual replicates, phenformin 6.5 hours): 3427.6 and 3669.9 and 3614.5
- TMRM average (143B cells; n 3, phenformin 6.5 hours): 3570.67
- TMRM average, % control (143B cells; n 3, phenformin 6.5 hours): 22.44 % control
